According to patent publication US11242407B2, “High-affinity anti-MERTK antibodies and uses thereof” (Rgenix, Inc., priority 2019, dated 2022):

What was measured:
[1] = test system: MERTK-expressing M1 macrophages; assay: Macrophage viability assay, M1; settings: 4 days of treatment in differentiating medium
Experimental: Macrophage Viability Assay
(§1) Peripheral blood mononuclear cells (PBMCs) were prepared from buffy coats of healthy donors by Histopaque-1077 (Sigma, 10771) density gradient centrifugation at 250×g at room temperature for 30 min. The intermediate layer containing PBMCs was collected and cells were washed with PBS/2 mM EDTA three times. Human monocytes were isolated from PBMCs by magnetic separation using human Classical Monocyte Isolation Kit (Miltenyi, 130-117-337) according to the manufacturer's instructions. Eighty thousand monocytes per well were cultured on 96-well plates in 150 μL PBMC medium (RPMI 1640 medium (Gibco, 11875093) containing 10% human AB serum, 10% FBS, L-glutamine, penicillin, and streptomycin) at 37° C. with 5% CO2. Monocytes were treated with GM-CSF (20 ng/mL; Biolegend, 766102) or M-CSF (50 ng/mL; Biolegend, 574804) for 8 days to differentiate to M1 or M2 macrophages, respectively. […] On day 4, 100 μL of CellTiter-Glo 2.0 Cell Viability Assay reagent (Promega, G9241) was added to each well, incubated for 10 mins and the luminescence signal was detected with a GloMax Discover Microplate Reader (Promega). The mean relative luminometer units (RLU) from duplicate wells were plotted with GraphPad Prism.

[2] = test system: MERTK-expressing M2 macrophages; assay: Macrophage viability assay, M2; settings: 4 days of treatment in differentiating medium
Experimental: Macrophage Viability Assay
as §1

CCCCNc1ncc2c(-c3ccc(S(=O)(=O)N4CCOCC4)cc3)nn(C3CCC(O)CC3)c2n1 (centres unmarked) [UNC1062, reference compound]
viability of M1 macrophages (CellTiter-Glo 2.0) [1]: neither z10 nor z10-MMAE nor z10-SN-38 nor the MERTK inhibitor UNC1062 affect the viability | viability of M2 macrophages (CellTiter-Glo 2.0) [2]: neither z10 nor z10-MMAE nor z10-SN-38 nor the MERTK inhibitor UNC1062 affect the viability
